# Assay results taken from ChEMBL document CHEMBL1201862, “PubChem BioAssay data set” (2004).
# Activity calls are given as the source filed them.
# Columns and labels:
# Large T antigen = Large T antigen (Simian virus 40, UniProt P03070); format: functional, Betapolyomavirus macacae;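 note: Confirmatory-stage PubChem screen for compounds that inhibit SV40 T antigen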
# [1] = target: Eukaryotic translation initiation factor 4E (Mus musculus, UniProt P63073); experiment: eIF4E–eIF4G protein interaction inhibitors, dose response, biochemical, TR-FRET (AID 855); format: functional;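 note: potency for disrupting eIF4E binding to eIF4GI seen as loss of FRET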
# Chain of Eukaryotic translation initiation factor 4E (P63073 whole entry): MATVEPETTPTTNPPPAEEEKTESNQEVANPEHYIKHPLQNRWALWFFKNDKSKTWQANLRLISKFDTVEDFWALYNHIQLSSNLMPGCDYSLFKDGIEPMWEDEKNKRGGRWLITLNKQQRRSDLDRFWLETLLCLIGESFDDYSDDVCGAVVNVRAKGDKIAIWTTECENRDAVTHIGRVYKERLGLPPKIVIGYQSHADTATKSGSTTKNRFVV
# Nonstructural protein 1 = Nonstructural protein 1 (Influenza A virus, UniProt Q194T2); format: functional, Influenza A virus (A/California/07/2009(H1N1))
# Chain of Nonstructural protein 1 (Q194T2 whole entry): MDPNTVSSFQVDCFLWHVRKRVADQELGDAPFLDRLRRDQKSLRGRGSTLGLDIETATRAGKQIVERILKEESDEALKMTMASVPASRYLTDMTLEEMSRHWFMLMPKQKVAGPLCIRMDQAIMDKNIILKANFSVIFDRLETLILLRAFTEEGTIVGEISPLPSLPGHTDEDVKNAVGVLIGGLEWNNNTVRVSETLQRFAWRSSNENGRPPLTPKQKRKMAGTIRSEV
# [2] = target: DNA dC->dU-editing enzyme APOBEC-3G (Homo sapiens, UniProt Q9HC16); experiment: Dose Response confirmation of small molecule APOBEC3G DNA Deaminase Inhibitors via a fluorescence-based single-stranded DNA deaminase assay. [Related pubchem assays (depositor defined):AID493012, AID493028]; format: functional
# Chain of DNA dC->dU-editing enzyme APOBEC-3G (Q9HC16 whole entry): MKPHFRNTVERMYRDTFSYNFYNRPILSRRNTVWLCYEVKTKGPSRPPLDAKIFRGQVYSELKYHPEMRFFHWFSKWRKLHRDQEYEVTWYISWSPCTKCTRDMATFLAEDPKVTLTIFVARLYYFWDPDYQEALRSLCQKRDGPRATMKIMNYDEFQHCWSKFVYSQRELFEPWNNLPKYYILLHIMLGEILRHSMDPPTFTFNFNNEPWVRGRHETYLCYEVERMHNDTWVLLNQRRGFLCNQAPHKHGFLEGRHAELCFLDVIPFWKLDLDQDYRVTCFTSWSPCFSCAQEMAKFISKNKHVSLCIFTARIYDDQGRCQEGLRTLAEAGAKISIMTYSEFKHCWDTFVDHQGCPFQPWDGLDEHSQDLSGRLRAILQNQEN
# [3] = target: T1, Short transient receptor potential channel 4 (Mus musculus, UniProt Q9QUQ5); experiment: mouse TRPC4 channel inhibitors, dose response, cell-based, HEK293 TRPC4/mu-opioid, Fluo-4 calcium (AID 434942); format: functional;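 note: potency of inhibitors blocking the TRPC4 calcium response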
# T1 sequence (Q9QUQ5 whole entry): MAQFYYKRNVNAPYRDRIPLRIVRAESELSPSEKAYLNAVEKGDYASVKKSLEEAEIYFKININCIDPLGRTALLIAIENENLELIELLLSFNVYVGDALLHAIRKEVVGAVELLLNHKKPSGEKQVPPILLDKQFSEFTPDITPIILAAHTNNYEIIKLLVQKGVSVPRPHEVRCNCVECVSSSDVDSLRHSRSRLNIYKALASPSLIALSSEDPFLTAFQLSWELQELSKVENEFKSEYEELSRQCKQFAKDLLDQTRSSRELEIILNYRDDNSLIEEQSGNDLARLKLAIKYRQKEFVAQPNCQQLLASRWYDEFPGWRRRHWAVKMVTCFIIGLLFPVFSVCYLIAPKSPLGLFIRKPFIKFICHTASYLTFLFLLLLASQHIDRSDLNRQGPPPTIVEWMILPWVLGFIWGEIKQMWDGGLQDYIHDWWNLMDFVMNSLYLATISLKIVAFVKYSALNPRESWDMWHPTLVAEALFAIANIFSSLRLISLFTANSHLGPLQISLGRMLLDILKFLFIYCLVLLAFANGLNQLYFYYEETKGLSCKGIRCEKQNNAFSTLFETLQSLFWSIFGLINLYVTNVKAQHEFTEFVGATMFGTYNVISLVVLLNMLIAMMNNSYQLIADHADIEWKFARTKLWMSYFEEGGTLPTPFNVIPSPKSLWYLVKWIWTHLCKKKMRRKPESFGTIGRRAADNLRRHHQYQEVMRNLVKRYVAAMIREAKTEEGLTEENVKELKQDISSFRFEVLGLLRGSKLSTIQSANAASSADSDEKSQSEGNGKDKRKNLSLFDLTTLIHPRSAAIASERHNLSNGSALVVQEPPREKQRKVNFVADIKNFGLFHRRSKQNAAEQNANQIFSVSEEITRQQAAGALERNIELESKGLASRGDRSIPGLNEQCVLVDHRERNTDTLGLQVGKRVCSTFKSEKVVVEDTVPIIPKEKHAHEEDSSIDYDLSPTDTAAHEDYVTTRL
# Aminopeptidase N = target: T2, Aminopeptidase N (Plasmodium falciparum FcB1/Columbia, UniProt O96935); experiment: P. falciparum M1AAP inhibitors, biochemical, fluorogenic H-Leu-NHMec substrate, 1536-well (AID 1445); design: species or system Plasmodium falciparum 3D7, 3D7
# T2 sequence (O96935 whole entry): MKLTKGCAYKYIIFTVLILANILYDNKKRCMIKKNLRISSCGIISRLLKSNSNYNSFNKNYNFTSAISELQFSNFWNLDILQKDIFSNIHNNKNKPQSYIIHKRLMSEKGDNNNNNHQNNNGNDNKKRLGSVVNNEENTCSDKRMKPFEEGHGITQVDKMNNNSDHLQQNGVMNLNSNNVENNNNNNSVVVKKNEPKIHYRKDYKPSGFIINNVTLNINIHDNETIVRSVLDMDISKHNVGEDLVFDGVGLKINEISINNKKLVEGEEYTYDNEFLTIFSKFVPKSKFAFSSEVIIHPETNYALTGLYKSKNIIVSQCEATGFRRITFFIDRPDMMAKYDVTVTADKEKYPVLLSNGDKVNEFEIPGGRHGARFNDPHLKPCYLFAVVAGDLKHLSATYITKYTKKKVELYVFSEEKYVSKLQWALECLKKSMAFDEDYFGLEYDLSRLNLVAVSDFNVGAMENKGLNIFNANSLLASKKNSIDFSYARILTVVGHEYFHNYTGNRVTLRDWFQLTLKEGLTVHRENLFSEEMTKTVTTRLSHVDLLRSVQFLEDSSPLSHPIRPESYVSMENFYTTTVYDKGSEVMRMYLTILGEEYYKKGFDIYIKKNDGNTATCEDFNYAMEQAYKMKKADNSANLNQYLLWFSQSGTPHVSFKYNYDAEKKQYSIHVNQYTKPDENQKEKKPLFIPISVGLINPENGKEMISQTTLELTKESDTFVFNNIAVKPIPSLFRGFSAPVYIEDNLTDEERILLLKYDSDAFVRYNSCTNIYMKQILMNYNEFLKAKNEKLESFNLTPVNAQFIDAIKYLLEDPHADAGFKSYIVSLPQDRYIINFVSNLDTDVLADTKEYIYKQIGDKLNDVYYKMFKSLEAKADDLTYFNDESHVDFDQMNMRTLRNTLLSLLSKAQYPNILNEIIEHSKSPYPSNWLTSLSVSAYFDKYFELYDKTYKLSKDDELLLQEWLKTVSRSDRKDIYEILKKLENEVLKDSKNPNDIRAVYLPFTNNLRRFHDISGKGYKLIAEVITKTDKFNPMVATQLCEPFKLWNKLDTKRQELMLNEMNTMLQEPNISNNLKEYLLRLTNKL
# [4] = cytotoxicity toward NIH3T3 fibroblasts, dose response, counter-screen, cell-based, ATP luminescence, mouse fibroblasts (AID 2010); format: functional;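 note: cells exposed to compound for about 90 hours before reading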
# [5] = inhibitors of intracellular T. cruzi replication, confirmation, NIH3T3 host cells, beta-gal luminescence (AID 2044); format: functional, cell-based;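 note: intracellular parasites grown in NIH/3T3 mouse fibroblasts as host cells; luminescent beta-galactosidase reporter signal from transgenic T. cruzi replicating inside host cells; inhibitors lower the luminescence signal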
# cells [6] = format: functional, cell-based
# cells [7] = format: functional, cell-based; remark: listed apart in the source
# Protein RecA = target: T3, Protein RecA (Mycobacterium tuberculosis, UniProt P9WHJ3); experiment: Fluorescence Cell-Free Homogeneous Dose Retest to Identify Inhibitors of RecA-Intein Splicing Activity. [Related pubchem assays (depositor defined):AID2097, AID2223, AID489010, AID492950]; format: functional
# T3 sequence (P9WHJ3 whole entry): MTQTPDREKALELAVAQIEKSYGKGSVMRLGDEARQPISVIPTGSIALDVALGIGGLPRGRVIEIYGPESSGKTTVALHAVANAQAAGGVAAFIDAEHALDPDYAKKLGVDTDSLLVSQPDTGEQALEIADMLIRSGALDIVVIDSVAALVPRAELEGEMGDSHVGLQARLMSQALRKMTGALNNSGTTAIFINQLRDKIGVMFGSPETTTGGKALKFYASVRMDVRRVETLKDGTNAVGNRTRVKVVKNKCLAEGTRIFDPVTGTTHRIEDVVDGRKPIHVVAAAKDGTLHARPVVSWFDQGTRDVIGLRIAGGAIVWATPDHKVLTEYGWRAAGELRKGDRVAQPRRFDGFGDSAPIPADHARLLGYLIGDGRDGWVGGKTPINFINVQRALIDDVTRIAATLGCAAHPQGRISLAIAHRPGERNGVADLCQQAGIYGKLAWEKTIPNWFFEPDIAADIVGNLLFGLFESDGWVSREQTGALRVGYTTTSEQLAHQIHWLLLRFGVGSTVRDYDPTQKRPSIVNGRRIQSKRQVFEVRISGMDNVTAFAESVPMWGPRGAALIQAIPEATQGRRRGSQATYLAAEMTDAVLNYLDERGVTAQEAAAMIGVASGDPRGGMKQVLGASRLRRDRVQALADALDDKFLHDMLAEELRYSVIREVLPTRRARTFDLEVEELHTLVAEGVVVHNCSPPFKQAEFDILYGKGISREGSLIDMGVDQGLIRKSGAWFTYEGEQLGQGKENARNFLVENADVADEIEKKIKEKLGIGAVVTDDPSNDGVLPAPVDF
# [8] = target: T4, Replicative DNA helicase DnaB (Mycobacterium tuberculosis, UniProt P9WMR3); experiment: DnaB intein splicing inhibitors, dose response, biochemical, cell-free fluorescence (AID 449749); format: functional
# T4 sequence (P9WMR3 whole entry): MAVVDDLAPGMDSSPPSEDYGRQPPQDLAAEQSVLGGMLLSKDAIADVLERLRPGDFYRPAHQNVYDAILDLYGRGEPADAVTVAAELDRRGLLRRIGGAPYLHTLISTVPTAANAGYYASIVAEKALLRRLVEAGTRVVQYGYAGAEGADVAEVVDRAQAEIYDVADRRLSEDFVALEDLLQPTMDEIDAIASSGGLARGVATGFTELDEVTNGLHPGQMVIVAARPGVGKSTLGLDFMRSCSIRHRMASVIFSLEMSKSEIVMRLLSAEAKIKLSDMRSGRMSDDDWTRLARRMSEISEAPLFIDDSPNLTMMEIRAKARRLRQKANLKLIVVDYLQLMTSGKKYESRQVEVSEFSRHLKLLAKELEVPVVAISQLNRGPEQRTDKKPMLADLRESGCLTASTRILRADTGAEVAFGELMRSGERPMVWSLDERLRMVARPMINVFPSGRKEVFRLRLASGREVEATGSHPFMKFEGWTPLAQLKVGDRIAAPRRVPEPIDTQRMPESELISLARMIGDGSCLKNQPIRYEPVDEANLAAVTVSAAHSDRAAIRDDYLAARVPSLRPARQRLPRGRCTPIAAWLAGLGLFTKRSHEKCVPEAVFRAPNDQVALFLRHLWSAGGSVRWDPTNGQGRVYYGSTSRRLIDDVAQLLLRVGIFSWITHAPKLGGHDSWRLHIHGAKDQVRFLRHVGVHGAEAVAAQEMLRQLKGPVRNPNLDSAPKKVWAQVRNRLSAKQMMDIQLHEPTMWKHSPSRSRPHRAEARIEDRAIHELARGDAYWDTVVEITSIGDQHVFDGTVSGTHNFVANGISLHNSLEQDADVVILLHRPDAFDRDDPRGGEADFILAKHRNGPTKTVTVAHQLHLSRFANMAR
# Leucine aminopeptidase = target: T5, Leucine aminopeptidase (Plasmodium falciparum 3D7, UniProt Q8IL11); experiment: P. falciparum M17LAP inhibitors, primary screen, biochemical, fluorogenic H-Leu-NHMec substrate, 1536-well (AID 1619); format: functional
# T5 sequence (Q8IL11 whole entry): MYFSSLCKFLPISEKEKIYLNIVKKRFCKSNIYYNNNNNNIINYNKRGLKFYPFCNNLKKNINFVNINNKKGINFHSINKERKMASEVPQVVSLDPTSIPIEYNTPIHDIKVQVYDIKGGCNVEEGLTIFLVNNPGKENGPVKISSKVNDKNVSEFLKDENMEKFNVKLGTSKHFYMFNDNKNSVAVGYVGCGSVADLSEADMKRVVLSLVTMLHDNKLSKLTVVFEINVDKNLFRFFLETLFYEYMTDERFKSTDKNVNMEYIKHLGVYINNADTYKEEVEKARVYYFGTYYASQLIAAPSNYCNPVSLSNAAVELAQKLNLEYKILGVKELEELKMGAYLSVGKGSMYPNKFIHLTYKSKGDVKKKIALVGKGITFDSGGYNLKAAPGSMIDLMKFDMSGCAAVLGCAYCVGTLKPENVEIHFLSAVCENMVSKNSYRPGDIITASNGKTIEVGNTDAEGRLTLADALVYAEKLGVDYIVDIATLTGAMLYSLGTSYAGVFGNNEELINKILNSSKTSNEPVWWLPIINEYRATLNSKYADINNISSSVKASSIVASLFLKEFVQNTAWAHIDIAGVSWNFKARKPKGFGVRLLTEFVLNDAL
# [9] = target: T6, Ubiquitin-conjugating enzyme E2 N (Homo sapiens, UniProt P61088); format: functional;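 note: Dose-response confirmation in a TR-FRET assay detecting UBC13-driven polyubiquitin chain formation, inhibition measured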
# T6 sequence (P61088 whole entry): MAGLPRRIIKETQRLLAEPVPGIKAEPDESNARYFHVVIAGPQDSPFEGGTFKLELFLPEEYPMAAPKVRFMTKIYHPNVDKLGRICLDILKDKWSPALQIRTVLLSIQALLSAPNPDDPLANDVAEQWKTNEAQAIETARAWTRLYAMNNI
# Chain of Large T antigen (P03070 whole entry): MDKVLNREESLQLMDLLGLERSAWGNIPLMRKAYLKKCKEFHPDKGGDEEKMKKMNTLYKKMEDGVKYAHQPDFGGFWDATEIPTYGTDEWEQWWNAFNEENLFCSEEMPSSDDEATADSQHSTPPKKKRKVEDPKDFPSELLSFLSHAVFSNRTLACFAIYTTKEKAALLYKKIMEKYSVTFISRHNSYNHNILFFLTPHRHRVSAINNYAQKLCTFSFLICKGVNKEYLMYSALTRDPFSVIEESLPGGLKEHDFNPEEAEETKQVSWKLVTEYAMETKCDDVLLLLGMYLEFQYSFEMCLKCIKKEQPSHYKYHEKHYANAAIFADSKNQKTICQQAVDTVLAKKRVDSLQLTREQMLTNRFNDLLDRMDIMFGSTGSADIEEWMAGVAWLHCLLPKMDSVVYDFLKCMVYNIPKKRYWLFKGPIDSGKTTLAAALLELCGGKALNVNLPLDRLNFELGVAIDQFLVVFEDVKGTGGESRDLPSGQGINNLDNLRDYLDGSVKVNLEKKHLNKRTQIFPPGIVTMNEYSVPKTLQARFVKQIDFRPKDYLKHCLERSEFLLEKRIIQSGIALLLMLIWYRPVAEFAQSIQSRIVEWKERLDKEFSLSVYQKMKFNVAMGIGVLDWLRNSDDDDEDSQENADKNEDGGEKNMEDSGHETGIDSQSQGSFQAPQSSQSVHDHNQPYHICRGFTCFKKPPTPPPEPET
structure (smiles),measurement,setting,value
Oc1ccc(-c2[nH]ncc2-c2cccc3cccnc23)c(O)c1,IC50,Large T antigen,25.7 µM (active)
same,IC50,[1],> 64 µM (inactive)
Cc1nnc2sc(SCC(=O)Nc3ccc(Cl)cc3)nn2c1=O,IC50,Nonstructural protein 1,9.75 µM (active)
CSc1n/c(=N/C(C)=O)ss1,IC50,[2],25.8 µM (active)
O=C(Nc1ccccc1Oc1cccnc1)C1CCCN(Cc2ccc(F)cc2)C1 (stereo unspecified),EC50,[3],3.35 µM (active)
COc1ccc(CC(=O)Nc2nnc(C(C)C)s2)cc1,IC50,[1],50 µM (inactive)
Cc1cc(C)n(CC(=O)N/N=C/c2cc(Br)cc([N+](=O)[O-])c2O)n1,IC50,Aminopeptidase N,19.2 µM (active)
same,EC50,[4],15.9 µM (active)
same,EC50,[5],678 nM (active)
Cc1ccc(/C(=N/Nc2ncnc3ccccc23)C(=O)O)cc1,IC50,Nonstructural protein 1,9.46 µM (active)
same,EC50,cells [6],> 350 µM (not active)
same,EC50,cells [7],> 350 µM (not active)
Fc1ccc(C2CCCN2Cc2nc(Cc3ccccc3)no2)cc1 (stereo unspecified),IC50,[1],50 µM (inactive)
CCOc1ccc(Nc2nc3cc(S(=O)(=O)N(CC)CC)ccc3o2)cc1,IC50,[2],> 100 µM (inactive)
O=C(Cc1ccccc1[N+](=O)[O-])OCc1cccc([N+](=O)[O-])c1,EC50,[3],0.376 µM (active)
COc1cc2cc(C(c3nnnn3C3CCCC3)N(C)C3CCCCC3)c(O)nc2cc1OC (stereo unspecified),IC50,[1],> 64 µM (inactive)
CCOc1cc(C2C(C#N)=C(N)Oc3[nH]nc(-c4ccccc4)c32)ccc1O (stereo unspecified),EC50,Protein RecA,689 nM (active)
same,AC50,[8],1.81 µM (active)
same,IC50,Leucine aminopeptidase,77.1 µM (active)
same,IC50,[9],> 20 µM (inactive)
O=C(NN1C(=O)c2ccccc2NC12CCCCC2)c1ccccc1,IC50,Aminopeptidase N,6.87 µM (active)
